Test results reported in patent publication US20240110130A1, “COMPOSITION” (Conopco, Inc., d/b/a UNILEVER, priority 2021, published 2024).

Assay: Colour measurement (yellowing) of liquid laundry compositions comprising DHA
Assay type: physicochemical
Conditions: added to laundry liquid comprising DHA salt

SMILES: O=S([O-])[O-].[K+].[K+] [sulphite, Potassium Sulfite]
- effect on yellowing: reduces yellowing
